Values of other authors, collected in US9782432B2, “Polymers and methods thereof for wound healing” (RUTGERS, THE STATE UNIVERSITY OF NEW JERSEY, priority 2012, dated 2017).
Read-outs that look alike come from different tables or passages of the source.

How the values were obtained:
adhesions [1] = conditions: 5 mg/kg/day intramuscularly, 7 days
adhesions [2] = conditions: 0.35, 0.7 or 1.4 mg every 6 hours for 48 or 96 hours
adhesions [3] = tested on: adhesions
adhesion formation [4] = conditions: rats, IP injection
adhesion formation [5] = conditions: dog, IP injection
adhesion formation [6] = conditions: rats with intact pineal glands, injections of melatonin
adhesions [7] = conditions: IP injections, rat model
adhesion formation [8] = tested on: adhesion formation

Compound: O=C(O)COC(=O)Cc1ccccc1Nc1c(Cl)cccc1Cl [aceclofenac]
- decrease in fibroblasts at the injury site (adhesions [1]): 8%
- fibrous area, treatment vs control group (adhesions [1]): significant difference

Compound: CC(=O)Oc1ccccc1C(=O)O [aspirin, acetylsalicylic acid]
- adhesions vs untreated control (adhesions [2]): no group was significantly different from the untreated control
- adhesion rate (adhesions [3]; 1.7 mg/kg/day for 5 days after surgery): 44%
- adhesion rate (adhesions [3]; 28.0 mg/kg/day for 5 days after surgery): 77%

Compound: COc1ccc2[nH]cc(CCNC(C)=O)c2c1 [melatonin]
- adhesion formation (adhesion formation [4]): significantly reduce abdominal adhesion formation
- adhesion formation (adhesion formation [5]): significantly reduce adhesion formation
- adhesions vs control (adhesion formation [6]): significantly less adhesions than the control

Compound: vitamin E
- efficacy compared with Seprafilm (adhesions [7]): as effective as Seprafilm
- reduction of adhesion formation (adhesion formation [8]; IP injection): 80%
- reduction of adhesion formation (adhesion formation [8]; oral or intramuscular administration): not when administered orally or intramuscularly
- abdominal adhesion formation (adhesion formation [8]; rats, injected intraperitoneally): significantly reduce abdominal adhesion formation
